Laboratory results taken from US20260070911A1, “INHIBITORS OF TAM RECEPTORS” (National Health Research Institutes, priority 2022, published 2026).

Experiments:
Assay type in all cases: biochemical
MER/AXL = experiment: Dual MER/AXL inhibition (enzymatic); details: class for both MER and AXL
MERTK = biological target: T1, MERTK (Homo sapiens, UniProt Q12866); experiment: MERTK enzymatic assay (Kinase Glo); details: purified kinase, ATP 12 μM, read-out: MER Enzymatic Inhibition (%)
T1 sequence (Q12866 21-999): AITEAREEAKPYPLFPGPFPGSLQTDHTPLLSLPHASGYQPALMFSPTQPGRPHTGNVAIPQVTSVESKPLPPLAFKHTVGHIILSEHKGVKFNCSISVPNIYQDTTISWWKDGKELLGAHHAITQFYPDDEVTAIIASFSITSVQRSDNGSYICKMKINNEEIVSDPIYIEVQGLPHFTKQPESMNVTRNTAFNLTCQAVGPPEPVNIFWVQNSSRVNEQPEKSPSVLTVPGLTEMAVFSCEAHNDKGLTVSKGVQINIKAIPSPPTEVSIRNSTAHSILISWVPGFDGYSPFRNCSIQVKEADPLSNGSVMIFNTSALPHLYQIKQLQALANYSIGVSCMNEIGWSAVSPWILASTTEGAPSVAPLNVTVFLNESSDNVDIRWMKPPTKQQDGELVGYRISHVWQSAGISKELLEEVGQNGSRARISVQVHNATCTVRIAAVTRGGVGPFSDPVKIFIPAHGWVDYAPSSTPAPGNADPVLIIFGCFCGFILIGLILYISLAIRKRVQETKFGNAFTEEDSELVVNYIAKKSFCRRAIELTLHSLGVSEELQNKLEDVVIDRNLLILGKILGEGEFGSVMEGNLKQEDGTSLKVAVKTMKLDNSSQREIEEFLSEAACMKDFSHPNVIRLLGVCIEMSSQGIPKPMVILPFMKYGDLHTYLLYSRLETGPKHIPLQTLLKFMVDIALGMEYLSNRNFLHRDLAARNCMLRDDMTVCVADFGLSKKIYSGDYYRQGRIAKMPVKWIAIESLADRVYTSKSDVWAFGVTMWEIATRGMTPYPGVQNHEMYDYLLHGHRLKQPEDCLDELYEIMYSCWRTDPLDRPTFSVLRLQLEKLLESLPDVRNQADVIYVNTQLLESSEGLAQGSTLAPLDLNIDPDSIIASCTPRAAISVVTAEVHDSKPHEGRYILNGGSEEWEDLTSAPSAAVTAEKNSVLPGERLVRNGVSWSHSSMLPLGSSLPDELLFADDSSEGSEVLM

AXL = biological target: T2, AXL (Homo sapiens, UniProt P30530); experiment: AXL enzymatic assay (ADP-Glo); details: purified kinase, ATP 50 μM, read-out: AXL Enzymatic Inhibition (%)
T2 sequence (P30530 26-894): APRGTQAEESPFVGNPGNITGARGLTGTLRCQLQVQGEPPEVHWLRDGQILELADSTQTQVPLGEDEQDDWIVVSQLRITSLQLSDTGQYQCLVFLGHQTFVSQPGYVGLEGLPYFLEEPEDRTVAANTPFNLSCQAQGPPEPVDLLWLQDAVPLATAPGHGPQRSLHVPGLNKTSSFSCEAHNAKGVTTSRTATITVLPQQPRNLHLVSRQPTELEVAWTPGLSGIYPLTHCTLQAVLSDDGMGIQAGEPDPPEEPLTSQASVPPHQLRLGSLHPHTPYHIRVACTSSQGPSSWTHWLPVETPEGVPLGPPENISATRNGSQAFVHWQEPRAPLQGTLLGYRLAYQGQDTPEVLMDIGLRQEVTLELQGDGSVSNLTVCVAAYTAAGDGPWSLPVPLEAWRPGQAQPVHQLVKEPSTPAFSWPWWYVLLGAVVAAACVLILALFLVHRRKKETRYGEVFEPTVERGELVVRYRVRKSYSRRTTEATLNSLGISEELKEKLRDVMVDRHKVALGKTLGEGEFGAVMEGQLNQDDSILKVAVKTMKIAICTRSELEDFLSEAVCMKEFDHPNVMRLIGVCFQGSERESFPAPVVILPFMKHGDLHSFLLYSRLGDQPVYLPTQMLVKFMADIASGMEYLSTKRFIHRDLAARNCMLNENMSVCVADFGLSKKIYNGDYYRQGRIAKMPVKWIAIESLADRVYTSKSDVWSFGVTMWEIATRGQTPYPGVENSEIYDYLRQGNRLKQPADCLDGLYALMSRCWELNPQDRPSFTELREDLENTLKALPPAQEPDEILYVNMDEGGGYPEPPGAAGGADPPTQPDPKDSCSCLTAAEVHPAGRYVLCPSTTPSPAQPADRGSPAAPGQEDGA

Row | Structure (SMILES) | IC50 (MER/AXL) [nM] | IC50 (MERTK) [nM] | IC50 (AXL) [nM]
1 | CC(=O)Nc1cccc(-c2c(-c3cnn(C)c3)oc3ncnc(Oc4ccc(NC(=O)c5c(C)ccn(-c6ccc(F)cc6)c5=O)cc4)c23)c1 [Compound 72] | 100 to 50000 | 100 to 50000 | 100 to 50000
2 | CC(=O)Nc1cccc(-c2c(-c3cnn(C)c3)oc3ncnc(Oc4ccc(NC(=O)c5c(C)n(C)n(-c6ccc(F)cc6)c5=O)cc4)c23)c1 [Compound 122] | 100 to 50000 | 100 to 50000 | < 20
3 | O=C(Nc1ccc(Oc2ncnc3oc(-c4ccccc4)cc23)cc1)c1cccn(-c2ccc(F)cc2)c1=O [Compound 42] | 100 to 50000 | 100 to 50000 | 100 to 50000
4 | Cn1cc(-c2oc3ncnc(Oc4ccc(NC(=O)c5cc(-c6ccc(F)cc6)on5)cc4)c3c2-c2cccc(N)c2)cn1 [Compound 115] | 100 to 50000 | 100 to 50000 | 100 to 50000
5 | Cn1cc(-c2oc3ncnc(Oc4ccc(NC(=O)c5cn(C)n(-c6ccc(F)cc6)c5=O)cc4)c3c2-c2ccccc2N)cn1 [Compound 141] | 100 to 50000 | 100 to 50000 | 100 to 50000
6 | Cn1cc(-c2oc3ncnc(Oc4ccc(NC(=O)c5cn(C)n(-c6ccc(F)cc6)c5=O)cc4)c3c2-c2cccc(N3CCCCC3=O)c2)cn1 [Compound 176] | 100 to 50000 | 100 to 50000 | 100 to 50000
7 | Cn1cc(-c2oc3ncnc(Oc4ccc(NC(=O)c5cccn(C)c5=O)cc4)c3c2-c2cccc(N)c2)cn1 [Compound 66] | 100 to 50000 | 100 to 50000 | 100 to 50000
8 | O=C(Nc1ccc(Oc2ncnc3[nH]cc(-c4ccccc4)c23)cc1)c1cccn(-c2ccc(F)cc2)c1=O [Compound 8] | 100 to 50000 | 20 to 100 | 100 to 50000
9 | Cn1cc(-c2oc3ncnc(Oc4ccc(NC(=O)c5ccc(-c6cccc(F)c6)o5)cc4)c3c2-c2cccc(N)c2)cn1 [Compound 119] | 100 to 50000 | 100 to 50000 | 20 to 100
10 | Cn1cc(-c2oc3ncnc(Oc4ccc(NC(=O)c5cn(C)n(-c6ccc(F)cc6)c5=O)cc4)c3c2-c2cccc(CN3CCOCC3)c2)cn1 [Compound 127] | 100 to 50000 | 100 to 50000 | < 20
11 | O=C(Nc1ccc(Oc2ncnc3ccsc23)cc1)c1cccn(-c2ccc(F)cc2)c1=O [Compound 41] | 100 to 50000 | 100 to 50000 | 20 to 100
12 | CN1CCN(c2cccc(-c3c(-c4cnn(C)c4)oc4ncnc(Oc5ccc(NC(=O)c6cccn(-c7ccc(F)cc7)c6=O)cc5)c34)c2)CC1 [Compound 38] | 20 to 100 | 20 to 100 | < 20
13 | CC(=O)Nc1cccc(-c2c(-c3c(C)noc3C)oc3ncnc(Oc4ccc(NC(=O)c5cccn(-c6ccc(F)cc6)c5=O)cc4)c23)c1 [Compound 26] | 100 to 50000 | 100 to 50000 | 100 to 50000
14 | CN(c1cccc(-c2c(-c3cnn(C)c3)oc3ncnc(Oc4ccc(NC(=O)c5cccn(-c6ccc(F)cc6)c5=O)cc4)c23)c1)S(C)(=O)=O [Compound 65] | 100 to 50000 | 100 to 50000 | 20 to 100
15 | CC(=O)Nc1cccc(-c2c(-c3cn(C)nc3C)oc3ncnc(Oc4ccc(NC(=O)c5cccn(-c6ccc(F)cc6)c5=O)cc4)c23)c1 [Compound 27] | 100 to 50000 | 100 to 50000 | < 20
16 | CN(C)c1cccc(-c2c[nH]c3ncnc(Oc4ccc(NC(=O)c5cccn(-c6ccc(F)cc6)c5=O)cc4)c23)c1 [Compound 21] | 100 to 50000 | 100 to 50000 | 100 to 50000
17 | O=C(Nc1ccc(Oc2ncnc3[nH]c(-c4ccccc4)cc23)cc1)c1cccn(-c2ccc(F)cc2)c1=O [Compound 76] | 100 to 50000 | 100 to 50000 | 100 to 50000
18 | Cn1cc(-c2oc3ncnc(Oc4ccc(NC(=O)c5cn(C)n(-c6ccc(F)cc6)c5=O)cc4)c3c2-c2cccc(CN3CCNCC3)c2)cn1 [Compound 130] | 100 to 50000 | 100 to 50000 | 100 to 50000
19 | CC(=O)Nc1cccc(-c2c(-c3cnn(C)c3)oc3ncnc(Oc4ccc(NC(=O)c5cc6c(n(-c7ccc(F)cc7)c5=O)CCCC6=O)cc4)c23)c1 [Compound 69] | 100 to 50000 | 100 to 50000 | < 20
20 | CC(=O)Nc1cccc(-c2c(-c3cnn(C)c3)oc3ncnc(Oc4ccc(NC(=O)c5cccn(C)c5=O)cc4)c23)c1 [Compound 75] | 100 to 50000 | 100 to 50000 | 100 to 50000

The next lines start with the values.

Row | IC50 (MER/AXL) [nM] | IC50 (MERTK) [nM] | IC50 (AXL) [nM] | Structure (SMILES)
21 | 100 to 50000 | 100 to 50000 | < 20 | CC(=O)Nc1cccc(-c2c(-c3cc[nH]n3)oc3ncnc(Oc4ccc(NC(=O)c5cccn(-c6ccc(F)cc6)c5=O)cc4)c23)c1 [Compound 67]
22 | < 20 | < 20 | < 20 | CC(=O)Nc1cccc(-c2c(-c3cnn(C)c3)oc3ncnc(Oc4ccc(NC(=O)c5ccc(C)n(-c6ccc(F)cc6)c5=O)cc4)c23)c1 [Compound 70]
23 | 100 to 50000 | 100 to 50000 | < 20 | O=C(Nc1ccc(Oc2ncnc3[nH]cc(-c4cccnc4)c23)cc1)c1cccn(-c2ccc(F)cc2)c1=O [Compound 16]
24 | 100 to 50000 | 100 to 50000 | 100 to 50000 | CN(C)Cc1cccc(-c2c[nH]c3ncnc(Oc4ccc(NC(=O)c5cn(C)n(-c6ccc(F)cc6)c5=O)cc4)c23)c1 [Compound 134]
25 | 100 to 50000 | 100 to 50000 | < 20 | CC(=O)Nc1cccc(-c2c(-c3ccsc3)oc3ncnc(Oc4ccc(NC(=O)c5cccn(-c6ccc(F)cc6)c5=O)cc4)c23)c1 [Compound 59]
26 | 20 to 100 | 20 to 100 | < 20 | CCOc1ccn(-c2ccc(F)cc2)c(=O)c1C(=O)Nc1ccc(Oc2ncnc3[nH]cc(-c4cccc(NC(C)=O)c4)c23)cc1 [Compound 2]
27 | 20 to 100 | 20 to 100 | < 20 | Cn1cc(-c2oc3ncnc(Oc4ccc(NC(=O)c5cccn(-c6ccc(F)cc6F)c5=O)cc4)c3c2-c2cccc(N)c2)cn1 [Compound 92]
28 | 20 to 100 | 20 to 100 | < 20 | Cn1cc(-c2oc3ncnc(Oc4ccc(NC(=O)c5cccn(-c6cccc(F)c6)c5=O)cc4)c3c2-c2cccc(N)c2)cn1 [Compound 55]
29 | < 20 | < 20 | < 20 | CN(C)Cc1cccc(-c2c[nH]c3ncnc(Oc4ccc(NC(=O)c5cccn(-c6ccc(F)cc6)c5=O)cc4)c23)c1 [Compound 82]
30 | 20 to 100 | 20 to 100 | < 20 | Cc1cc(F)ccc1-n1cccc(C(=O)Nc2ccc(Oc3ncnc4oc(-c5cnn(C)c5)c(-c5cccc(N)c5)c34)cc2)c1=O [Compound 73]
31 | 20 to 100 | 20 to 100 | < 20 | Cn1cc(-c2oc3ncnc(Oc4ccc(NC(=O)c5cc6c(n(-c7ccccc7)c5=O)CCCC6=O)cc4)c3c2-c2cccc(N)c2)cn1 [Compound 61]
32 | 20 to 100 | 20 to 100 | < 20 | CC(=O)Nc1cccc(-c2c(-c3cnn(C)c3)oc3ncnc(Oc4ccc(NC(=O)c5cccn(-c6ccccc6)c5=O)cc4)c23)c1 [Compound 56]
33 | 20 to 100 | 20 to 100 | < 20 | CC(=O)Nc1cccc(-c2c(-c3cn[nH]c3)oc3ncnc(Oc4ccc(NC(=O)c5cccn(-c6ccc(F)cc6)c5=O)cc4)c23)c1 [Compound 40]
